Assay results published in paper PMC7367283, “A PIP2 substitute mediates voltage sensor-pore coupling in KCNQ activation” (Communications Biology, 2020).
Values joined by “and” are separate entries in the source; they are usually repeats but may differ in a detail not shown here. Identical values can stand only once.

Key:
[1] = molecular target: KCNQ2 (Homo sapiens, UniProt O43526); assay: Two-electrode voltage clamp of KCNQ2 in Xenopus oocytes; type: cell-based; details: Q2, individual oocytes
Source text: (§1) KCNQ2 and KCNQ3 form a channel complex that carries M currents in neurons. Similar to KCNQ1, these KCNQ subunits require PIP2 for voltage-dependent activation. KCNQ2 alone can express functional channels in Xenopus oocytes, while KCNQ3 alone cannot. However, a single mutation, A315T, allows KCNQ3 to functionally express in Xenopus oocytes. We examined the effects of CP1 on KCNQ2, KCNQ3 with mutation A315T (denoted as KCNQ3*), KCNQ2+KCNQ3, and KCNQ2+KCNQ3* expressed in Xenopus oocytes (Fig. 5a). Similar to the effects on KCNQ1 and IKs channels, CP1 changed the amplitude of currents (Fig. 5b), shifted the G–V relation to more negative voltages (Fig. 5c), and slowed the deactivation kinetics (Fig. 5d) for all of these KCNQ channels. These CP1 effects were relatively small on KCNQ2 as compared with those on other KCNQ channels, and the effects on KCNQ2/KCNQ3* and KCNQ2/KCNQ3 complexes were closer to those on KCNQ2 alone.
(§2) Fig. 5 Subtype selectivity of CP1 on KCNQ channels. a Current traces of KCNQ channels as indicated in the absence and the presence of 10 µM CP1. […]
(§3) The whole-oocyte ionic currents were recorded with a GeneClamp 500B amplifier (Axon Instruments, CA) or iTEV90 amplifier (HEKA, Germany) and then sampled at 1 kHz and low-pass-filtered at 2 kHz. […] The Kir1.1 current was recorded with a high K^+ bath solution containing (in mM) 96 KCl, 4 NaCl, 1 CaCl2, 2 MgCl2, and 10 HEPES, pH 7.3–7.4. The HCN4 current was recorded in ND66 solution containing (in mM) 66 NaCl, 32 KCl, 1.8 CaCl2, 1 MgCl2, and 5 HEPES, pH 7.6. All the other potassium channels were recorded in ND96 solution. The currents of CaV1.2 channel were recorded in 40 mM Ba^2+ bath solution containing (in mM) 40 Ba(OH)2, 50 TEA-OH, 2 KOH, and 5 HEPES, adjusted to pH 7.4 with methanesulfonic acid. […] The HCN4 currents were recorded by a test pulse between −30 and −140 mV in 10-mV step from a holding potential of −30 mV. […]

[2] = molecular target: KCNQ2/KCNQ3 (Homo sapiens, UniProt O43525+O43526); assay: Two-electrode voltage clamp of KCNQ2+KCNQ3 in Xenopus oocytes; type: cell-based; details: Q2/Q3, individual oocytes
Source text: as §1, §2, §3

## O=S(=O)([O-])Oc1c(-c2sc3c(ccc4cccc(Cl)c43)c2OS(=O)(=O)[O-])[nH]c2ccc(Br)cc12.[Na+].[Na+] [CP1, DISODIUM 5-BROMO-2-[9-CHLORO-3-(SULFONATOOXY) NAPHTHO [1,2-B] THIEN-2-YL]-1H-INDOL-3-YL SULFATE]
[1]; 10 µM CP1, at −10 mV
  outward current (Icp1/Ictrl): 0.9785 and 0.9995 and 0.8123 and 1.2015 and 0.921 and 1.0361 and 1.0974 and 0.9815
[1]; 10 µM CP1
  ∆V1/2: 17.7074 mV and 18.0799 mV and 23.5635 mV and 19.0344 mV and 22.5139 mV and 21.9525 mV and 18.3088 mV and 15.6776 mV
[1]; 10 µM CP1 treated
  τ deact at -120 mV: 0.0991 s and 0.1579 s and 0.2146 s and 0.1525 s and 0.1022 s
[2]; 10 µM CP1, at −10 mV
  outward current (Icp1/Ictrl): 1.7551 and 1.3309 and 1.0976 and 1.4059
[2]; 10 µM CP1
  ∆V1/2: 15.349 mV and 10.5931 mV and 18.0231 mV and 10.5937 mV
[2]; 10 µM CP1 treated
  τ deact at -120 mV: 0.1194 s and 0.1528 s and 0.295 s and 0.1626 s
